Measured values from US11000033B2, “Ketone or oxime compound, and herbicide” (NISSAN CHEMICAL CORPORATION, priority 2014, dated 2021).

What was measured:
Format in all cases: in vivo
Scirpus juncoides = assay: Test Example 1: herbicidal activity, application before weed generation in submerged conditions (symbol B); conditions: application herbicide amount 320 g/ha
Procedure, shortened: (§1)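 Compound emulsion was diluted to a set herbicide amount and applied to the water surface on the sowing day, into submerged (4 cm) alluvial-soil pots sown with mixed weed seeds and transplanted 2.5-leaf rice. Pots were held in a 25–30 °C greenhouse, and weeds were scored 0–5 by herbicidal ratio after 3 weeks.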

corn = assay: Test Example 4: effect on crop by soil treatment (symbol c); conditions: for c: corn, effect grade on crop: 320 g/ha
Procedure, shortened: (§2)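 The test used sterilized diluvial soil. Seed was set down in spots and overlaid with about 1.5 cm of soil before growth in a greenhouse kept at 25° C. to 30° C.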

[1] = test system: Echinochloa crus-galli var. crus-galli; assay: Test Example 5: herbicidal effect by foliage application, plastic box (symbol H); conditions: 320 g/ha, 3 weeks after application
Procedure, shortened: (§3)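 Sowing in sterilized diluvial soil, 14 days' greenhouse growth at 25° C. to 30° C., then uniform small-sprayer foliar application of aqueous emulsion dilution; plants scored three weeks afterwards.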

Lolium multiflorum Lam. = assay: Test Example 4: herbicidal effect by soil treatment (symbol K); conditions: for K: Lolium multiflorum Lam., herbicidal effect grade: 320 g/ha
Procedure, shortened: (§4)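 Seeds were sown in sterilized diluvial soil, covered with about 1.5 cm of soil, and the soil surface was sprayed with a water-diluted emulsion of the compound at a predetermined rate. Plants grew in a greenhouse at 25° C. to 30° C.; effects were scored visually 3 weeks after application.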

Leptochloa chinensis = assay: Test Example 3: herbicidal effect by foliage application, Wagner pot (symbol D); conditions: application herbicide amount 320 g/ha
Procedure, shortened: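 Seeds sown in alluvial soil kept under 0.1–0.5 cm water, greenhouse 25–30 °C; 14 d growth. Leaves treated by small sprayer with water-diluted emulsion at a predetermined rate. Effect graded by set scale, 3 weeks.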

rapeseed [2] = assay: Test Example 5: effect on crop by foliage application, plastic box (symbol g); conditions: 320 g/ha, 3 weeks after application
Procedure, shortened: (§5)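 A greenhouse held between 25° C. and 30° C. was used to grow plants sown spot-wise, beneath ~1.5 cm of soil, in boxes of sterilized diluvial soil.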

Monochoria vaginalis = assay: Test Example 1: herbicidal activity, application before weed generation in submerged conditions (symbol C); conditions: application herbicide amount 320 g/ha
Procedure, shortened: as §1

[3] = test system: Echinochloa crus-galli var. crus-galli; assay: Test Example 4: herbicidal effect by soil treatment (symbol H); conditions: for H: Echinochloa crus-galli var. crus-galli, herbicidal effect grade: 320 g/ha
Procedure, shortened: as §4

wheat = assay: Test Example 5: effect on crop by foliage application, plastic box (symbol e); conditions: 320 g/ha, 3 weeks after application
Procedure, shortened: as §5

Alopecurus myosuroides = assay: Test Example 5: herbicidal effect by foliage application, plastic box (symbol J); conditions: 320 g/ha, 3 weeks after application
Procedure, shortened: as §3

Setaria viridis [4] = assay: Test Example 5: herbicidal effect by foliage application, plastic box (symbol G); conditions: 320 g/ha, 3 weeks after application
Procedure, shortened: as §3

Galium spurium [5] = assay: Test Example 5: herbicidal effect by foliage application, plastic box (symbol Q); conditions: 320 g/ha, 3 weeks after application
Procedure, shortened: as §3

rapeseed [6] = assay: Test Example 4: effect on crop by soil treatment (symbol g); conditions: for g: rapeseed, effect grade on crop: 320 g/ha
Procedure, shortened: as §2

Stellaria media [7] = assay: Test Example 4: herbicidal effect by soil treatment (symbol P); conditions: for P: Stellaria media, herbicidal effect grade: 320 g/ha
Procedure, shortened: as §4

Amaranthus retroflexus = assay: Test Example 4: herbicidal effect by soil treatment (symbol N); conditions: for N: Amaranthus retroflexus, herbicidal effect grade: 320 g/ha
Procedure, shortened: as §4

Setaria viridis [8] = assay: Test Example 4: herbicidal effect by soil treatment (symbol G); conditions: for G: Setaria viridis, herbicidal effect grade: 320 g/ha
Procedure, shortened: as §4

Galium spurium [9] = assay: Test Example 4: herbicidal effect by soil treatment (symbol Q); conditions: for Q: Galium spurium, herbicidal effect grade: 320 g/ha
Procedure, shortened: as §4

Stellaria media [10] = assay: Test Example 5: herbicidal effect by foliage application, plastic box (symbol P); conditions: 320 g/ha, 3 weeks after application
Procedure, shortened: as §3

Apera spica-venti = assay: Test Example 4: herbicidal effect by soil treatment (symbol L); conditions: for L: Apera spica-venti, herbicidal effect grade: 320 g/ha
Procedure, shortened: as §4

[11] = application herbicide amount 320 g/ha

Row | SMILES | Herbicidal effect grade, B: Scirpus juncoides (Scirpus juncoides) | c: corn, effect grade on crop (corn) | H: Echinochloa crus-galli var. crus-galli, herbicidal effect (criteria 0-5) [1] | K: Lolium multiflorum Lam., herbicidal effect grade (Lolium multiflorum Lam.) | herbicidal effect on D (Leptochloa chinensis), grade 0-5 (Leptochloa chinensis) | g: rapeseed, effect on crop (criteria 0-5) (rapeseed [2]) | Herbicidal effect grade, C: Monochoria vaginalis (Monochoria vaginalis) | H: Echinochloa crus-galli var. crus-galli, herbicidal effect grade [3] | e: wheat, effect on crop (criteria 0-5) (wheat) | J: Alopecurus myosuroides, herbicidal effect (criteria 0-5) (Alopecurus myosuroides) | G: Setaria viridis, herbicidal effect (criteria 0-5) (Setaria viridis [4]) | Q: Galium spurium, herbicidal effect (criteria 0-5) (Galium spurium [5]) | g: rapeseed, effect grade on crop (rapeseed [6]) | P: Stellaria media, herbicidal effect grade (Stellaria media [7]) | N: Amaranthus retroflexus, herbicidal effect grade (Amaranthus retroflexus) | G: Setaria viridis, herbicidal effect grade (Setaria viridis [8]) | Q: Galium spurium, herbicidal effect grade (Galium spurium [9]) | P: Stellaria media, herbicidal effect (criteria 0-5) (Stellaria media [10]) | L: Apera spica-venti, herbicidal effect grade (Apera spica-venti) | also measured
1 | CON=C(C)CC1CC(OC(=O)C(C)Oc2ccc(Oc3cnc4cc(Cl)ccc4n3)cc2)=C(c2c(C)cc(C)cc2C)C1=O (stereo not drawn) [1-087] | 5 (Herbicidal ratio of 90% or more (almost completely withered)) | 3 (Herbicidal ratio of 40% or higher and lower than 70%) | 5 (Herbicidal ratio of 90% or more (almost completely withered)) | 5 (Herbicidal ratio of 90% or more (almost completely withered)) | 5 (Herbicidal ratio of 90% or more (almost completely withered)) | 4 (Herbicidal ratio of 70% or higher and lower than 90%) | 1 (Herbicidal ratio of 5% or higher and lower than 20%) | 5 (Herbicidal ratio of 90% or more (almost completely withered)) | 5 (Herbicidal ratio of 90% or more (almost completely withered)) | 5 (Herbicidal ratio of 90% or more (almost completely withered)) | 5 (Herbicidal ratio of 90% or more (almost completely withered)) | 4 (Herbicidal ratio of 70% or higher and lower than 90%) | 5 (Herbicidal ratio of 90% or more (almost completely withered)) | 0 (Herbicidal ratio of 5% or lower (almost no effect)) | 5 (Herbicidal ratio of 90% or more (almost completely withered)) | 5 (Herbicidal ratio of 90% or more (almost completely withered)) | 0 (Herbicidal ratio of 5% or lower (almost no effect)) | 3 (Herbicidal ratio of 40% or higher and lower than 70%) | 5 (Herbicidal ratio of 90% or more (almost completely withered)) | –
2 | COCC(=O)OC1=C(c2c(C)cc(C)cc2C)C(=O)C(CC(C)=NOC)C1 (stereo not drawn) [1-093] | 5 (Herbicidal ratio of 90% or more (almost completely withered)) | 5 (Herbicidal ratio of 90% or more (almost completely withered)) | 5 (Herbicidal ratio of 90% or more (almost completely withered)) | 5 (Herbicidal ratio of 90% or more (almost completely withered)) | 5 (Herbicidal ratio of 90% or more (almost completely withered)) | 4 (Herbicidal ratio of 70% or higher and lower than 90%) | 2 (Herbicidal ratio of 20% or higher and lower than 40%) | 5 (Herbicidal ratio of 90% or more (almost completely withered)) | 5 (Herbicidal ratio of 90% or more (almost completely withered)) | 5 (Herbicidal ratio of 90% or more (almost completely withered)) | 5 (Herbicidal ratio of 90% or more (almost completely withered)) | 0 (Herbicidal ratio of 5% or lower (almost no effect)) | 4 (Herbicidal ratio of 70% or higher and lower than 90%) | 0 (Herbicidal ratio of 5% or lower (almost no effect)) | 3 (Herbicidal ratio of 40% or higher and lower than 70%) | 5 (Herbicidal ratio of 90% or more (almost completely withered)) | 0 (Herbicidal ratio of 5% or lower (almost no effect)) | 2 (Herbicidal ratio of 20% or higher and lower than 40%) | 5 (Herbicidal ratio of 90% or more (almost completely withered)) | –
3 | CC#Cc1cc(C)c(C2=C(OC(=O)COc3ccccc3)CC(CC(=NOC)C(C)C)C2=O)c(C)c1 (stereo not drawn) [9-003] | 4 (Herbicidal ratio of 70% or higher and lower than 90%) | – | – | – | – | – | 1 (Herbicidal ratio of 5% or higher and lower than 20%) | – | – | – | – | – | – | – | – | – | – | – | – | Effect on crop grade, c: corn (corn; [11]): 5 (Herbicidal ratio of 90% or more (almost completely withered)); H: Echinochloa crus-galli var. crus-galli, herbicidal effect grade [1]: 5 (Herbicidal ratio of 90% or more (almost completely withered)); Herbicidal effect grade, K: Lolium multiflorum Lam. (Lolium multiflorum Lam.; [11]): 5 (Herbicidal ratio of 90% or more (almost completely withered)); D (Leptochloa chinensis) herbicidal effect grade (Leptochloa chinensis; Table 24): 5 (Herbicidal ratio of 90% or more (almost completely withered)); g: rapeseed, effect on crop grade (rapeseed [2]): 4 (Herbicidal ratio of 70% or higher and lower than 90%); Herbicidal effect grade, H: Echinochloa crus-galli var. crus-galli [3, 11]: 5 (Herbicidal ratio of 90% or more (almost completely withered)); e: wheat, effect on crop grade (wheat): 4 (Herbicidal ratio of 70% or higher and lower than 90%); J: Alopecurus myosuroides, herbicidal effect grade (Alopecurus myosuroides): 5 (Herbicidal ratio of 90% or more (almost completely withered)); G: Setaria viridis, herbicidal effect grade (Setaria viridis [4]): 5 (Herbicidal ratio of 90% or more (almost completely withered)); Q: Galium spurium, herbicidal effect grade (Galium spurium [5]): 0 (Herbicidal ratio of 5% or lower (almost no effect)); Effect on crop grade, g: rapeseed (rapeseed [6]; [11]): 5 (Herbicidal ratio of 90% or more (almost completely withered)); Herbicidal effect grade, P: Stellaria media (Stellaria media [7]; [11]): 0 (Herbicidal ratio of 5% or lower (almost no effect)); Herbicidal effect grade, N: Amaranthus retroflexus (Amaranthus retroflexus; [11]): 0 (Herbicidal ratio of 5% or lower (almost no effect)); Herbicidal effect grade, G: Setaria viridis (Setaria viridis [8]; [11]): 5 (Herbicidal ratio of 90% or more (almost completely withered)); Herbicidal effect grade, Q: Galium spurium (Galium spurium [9]; [11]): 0 (Herbicidal ratio of 5% or lower (almost no effect)); P: Stellaria media, herbicidal effect grade (Stellaria media [10]): 3 (Herbicidal ratio of 40% or higher and lower than 70%); Herbicidal effect grade, L: Apera spica-venti (Apera spica-venti; [11]): 5 (Herbicidal ratio of 90% or more (almost completely withered))
